± gives the standard deviation of the averaged measurements.
Tests used:
Experiment in all cases: level (log10 ratio to DMSO vehicle control); higher = higher biomarker level / cell amount than vehicle control
Perfluoroheptanoic acid = compound: O=C(O)C(F)(F)C(F)(F)C(F)(F)C(F)(F)C(F)(F)C(F)(F)F [Perfluoroheptanoic acid]; conditions: in DMSO
Procedure: (§1)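 BioMAP Diversity Plus panel of 12 human primary cell co-culture systems (3C, 4H, LPS, SAg, BT, BF4T, BE3C, CASM3C, HDF3CGF, KF3CT, MyoF, Mphg). Compounds were added 1 h before stimulation and left for 24 h (MyoF 48 h; BT 72 h for soluble read-outs or 6 d for IgG). Biomarkers were read by ELISA, cytotoxicity by SRB, PBMC viability and proliferation by Alamar Blue. Each well value was divided by the mean of 8 DMSO control wells on the same plate and log10 transformed; duplicate blinded samples were tested at 4 concentrations.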

[1] = compound: O=C(O)C(F)(F)OC(F)(F)C(F)(F)OC(F)(F)F [Perfluoro-3,6-dioxaheptanoic acid]; conditions: in DMSO
Procedure: as §1

[2] = compound: FC(F)C(F)(F)COCC1CO1 [((2,2,3,3-Tetrafluoropropoxy)methyl)oxirane]; conditions: in DMSO
Procedure: as §1

[3] = compound: O=C(O)C(F)(F)C(F)(F)C(F)F [4H-Perfluorobutanoic acid]; conditions: in DMSO
Procedure: as §1

Perfluorodecanoic acid = compound: O=C(O)C(F)(F)C(F)(F)C(F)(F)C(F)(F)C(F)(F)C(F)(F)C(F)(F)C(F)(F)C(F)(F)F [Perfluorodecanoic acid]; conditions: in DMSO
Procedure: as §1

[4] = compound: OCCCC(F)(F)C(F)(F)C(F)(F)C(F)(F)C(F)(F)C(F)(F)C(F)(F)F [7:3 Fluorotelomer alcohol]; conditions: 6700 nM; in DMSO
Procedure: as §1

[5] = compound: NCC(F)(F)C(F)(F)C(F)(F)C(F)(F)C(F)(F)C(F)(F)C(F)(F)F [1H,1H-Perfluorooctylamine]; conditions: in DMSO
Procedure: as §1

Test System	level (log10) (Perfluoroheptanoic acid; 6700 nM)	level (log10) (Perfluoroheptanoic acid; 20000 nM)	level (log10) (Perfluoroheptanoic acid; 60000 nM)	level (log10) ([1]; 6700 nM)	level (log10) ([1]; 20000 nM)	level (log10) ([1]; 60000 nM)	level (log10) ([2]; 6700 nM)	level (log10) ([2]; 20000 nM)	level (log10) ([2]; 60000 nM)	level (log10) ([3]; 6700 nM)	level (log10) ([3]; 20000 nM)	level (log10) ([3]; 60000 nM)	level (log10) (Perfluorodecanoic acid; 6700 nM)	level (log10) (Perfluorodecanoic acid; 20000 nM)	level (log10) [4]	level (log10) ([5]; 6700 nM)	level (log10) ([5]; 20000 nM)	level (log10) ([5]; 60000 nM)
BF4T:Keratin 8/18	-0.0285 ± 0.0092	-0.018 ± 0.0057	0.0045 ± 0.026	-0.025 ± 0.023	-0.001 ± 0.014	-0.0095 ± 0.018	0.0005 ± 0.005	-0.008 ± 0.014	-0.0025 ± 0.042	-0.027 ± 0.027	-0.0025 ± 0.013	0.0035 ± 0.021	0.011 ± 0.0028	-0.335 ± 0.042	0.0045 ± 0.0035	-0.0065 ± 0.021	-0.011 ± 0.014	0.0035 ± 0.00071
BF4T:SRB	-0.0085 ± 0.00071	-0.0115 ± 0.00071	-0.0035 ± 0.018	-0.007 ± 0.0057	-0.0035 ± 0.0021	-0.003 ± 0.0028	-0.0075 ± 0.0035	-0.006 ± 0.0057	0.002 ± 0.017	0.0005 ± 0.0021	-0.008 ± 0.0057	-0.006 ± 0.0042	-0.001 ± 0.0071	-0.256 ± 0.0014	-0.008 ± 0.017	-0.002 ± 0.0042	-0.005 ± 0.013	-0.0005 ± 0.016
BT:sIL-6	0.02 ± 0.065	0.0175 ± 0.044	-0.0375 ± 0.071	0.021 ± 0.059	-0.009 ± 0.059	-0.0235 ± 0.064	0.054 ± 0.051	0.0155 ± 0.0064	-0.0365 ± 0.005	-0.008	-0.046 ± 0.031	-0.0915 ± 0.026	-0.029 ± 0.071	0.077 ± 0.058	-0.0125 ± 0.073	0.041 ± 0.025	0.02 ± 0.05	-0.1305 ± 0.00071
3C:HLA-DR	0.006 ± 0.017	0.004 ± 0.013	0.034 ± 0.047	-0.035 ± 0.033	-0.0075 ± 0.0078	-0.0115 ± 0.021	0.012 ± 0.0085	0.013 ± 0.021	0.0235 ± 0.043	-0.003 ± 0.0057	-0.013 ± 0.011	0.011 ± 0.014	-0.0035 ± 0.0021	-0.006 ± 0.013	-0.002 ± 0.0057	0.004 ± 0.047	0.023 ± 0.057	0.023 ± 0.041
BE3C:CXCL9/MIG	0 ± 0.0014	0.0065 ± 0.011	0.012 ± 0.017	-0.016 ± 0.0014	-0.003 ± 0.021	0.0025 ± 0.0035	0 ± 0.0042	-0.0115 ± 0.0092	0.003 ± 0.02	-0.0015 ± 0.011	0.0085 ± 0.022	0.0135 ± 0.0092	-0.003 ± 0.0042	-0.715 ± 0.9	-0.0015 ± 0.0021	-0.0095 ± 0.011	0.0035 ± 0.022	0.0005 ± 0.0021
BF4T:MMP-1	-0.0005 ± 0.028	0.001 ± 0.03	0.039 ± 0.051	-0.0125 ± 0.025	-0.004 ± 0.028	-0.001 ± 0.013	0.016 ± 0.0085	0.007 ± 0.02	0.03 ± 0.021	-0.0075 ± 0.019	0 ± 0.034	0.006 ± 0.038	-0.0015 ± 0.0035	-0.201 ± 0.011	0.0005 ± 0.018	0.0115 ± 0.0092	0.0025 ± 0.005	0.011 ± 0.0085
SAg:CXCL8/IL-8	0.008 ± 0.011	0.0115 ± 0.0078	0.0715 ± 0.043	0.0055 ± 0.0035	0.034 ± 0.0071	0.0735 ± 0.04	-0.004 ± 0.011	-0.0335 ± 0.011	0.02 ± 0.018	-0.0325 ± 0.03	-0.0065 ± 0.022	0.025 ± 0.098	-0.0325 ± 0.03	-0.064 ± 0.038	-0.0085 ± 0.025	0.058 ± 0.076	-0.0255 ± 0.011	0.0065 ± 0.061
3C:SRB	-0.0065 ± 0.0078	0.005 ± 0.0085	-0.0255 ± 0.0035	-0.01 ± 0.0071	-0.022 ± 0.0057	-0.008 ± 0.0042	-0.0085 ± 0.0078	-0.008 ± 0.0028	-0.004 ± 0.0099	0.0015 ± 0.0064	-0.007 ± 0.016	-0.0075 ± 0.013	0.0095 ± 0.0021	-0.005 ± 0.0042	-0.005 ± 0.0028	0.0005 ± 0.0035	0.002 ± 0.0071	0.0045 ± 0.046
SAg:CD62E/E-Selectin	-0.025 ± 0.0085	0.011	0.008 ± 0.013	-0.0015 ± 0.0021	0.001 ± 0.0042	0.021 ± 0.0057	0.0075 ± 0.018	-0.002 ± 0.023	0.009 ± 0.047	-0.0205 ± 0.018	-0.002 ± 0.0014	0.0175 ± 0.0078	0.0005 ± 0.015	0.0165 ± 0.023	-0.0005 ± 0.00071	-0.0135 ± 0.028	-0.0055 ± 0.039	0 ± 0.011
BF4T:MMP-3	-0.027 ± 0.023	-0.011	0.046 ± 0.048	-0.0065 ± 0.029	-0.0075 ± 0.025	0.0065 ± 0.0078	0.0015 ± 0.00071	-0.0115 ± 0.026	0.0205 ± 0.059	-0.0025 ± 0.012	-0.014 ± 0.02	-0.007 ± 0.023	0.0215 ± 0.023	-0.14 ± 0.075	-0.013 ± 0.014	-0.0075 ± 0.042	-0.0185 ± 0.044	0.0095 ± 0.0078
BF4T:tPA	-0.0125 ± 0.005	-0.0145 ± 0.015	0.004 ± 0.073	-0.0365 ± 0.05	-0.0115 ± 0.063	-0.041 ± 0.068	-0.009 ± 0.018	-0.001 ± 0.033	0.016 ± 0.064	-0.002 ± 0.037	0.003 ± 0.028	0.0475 ± 0.022	-0.0185 ± 0.005	-0.18 ± 0.097	0.0105 ± 0.015	-0.017 ± 0.023	-0.027 ± 0.021	0.003 ± 0.014
BE3C:EGFR	-0.0065 ± 0.0078	0.0045 ± 0.0021	-0.0005 ± 0.033	-0.0185 ± 0.012	0.003 ± 0.021	0.007 ± 0.02	0.002 ± 0.0071	-0.021 ± 0.021	-0.0145 ± 0.012	-0.0135 ± 0.011	-0.0085 ± 0.0064	0.032 ± 0.025	-0.0135 ± 0.05	-0.149 ± 0.073	0.0115 ± 0.015	-0.005 ± 0.0099	-0.018 ± 0.0057	0.003 ± 0.0014
BF4T:CD106/VCAM-1	-0.0015 ± 0.029	0.0115 ± 0.015	0.029 ± 0.0099	-0.035 ± 0.055	-0.0205 ± 0.032	-0.01 ± 0.017	0.003 ± 0.0028	-0.003 ± 0.0057	0.0185 ± 0.043	0.0145 ± 0.033	-0.0365 ± 0.054	0.028 ± 0.078	-0.026 ± 0.0085	-0.311 ± 0.0042	-0.0255 ± 0.0021	0.002	0.0045 ± 0.00071	0.0215 ± 0.032
LPS:CXCL8/IL-8	0.0085 ± 0.033	0.027 ± 0.03	0.105 ± 0.059	0.007 ± 0.028	0.0265 ± 0.0064	0.0505 ± 0.0078	-0.035 ± 0.038	-0.024 ± 0.031	0.004 ± 0.0014	-0.0155 ± 0.019	-0.008 ± 0.02	0.018 ± 0.024	0.027 ± 0.0071	0.0115 ± 0.0064	-0.0305 ± 0.011	-0.0315 ± 0.011	-0.0265 ± 0.0035	-0.0105 ± 0.033
3C:CXCL8/IL-8	0.0285 ± 0.04	0.0305 ± 0.056	0.0955 ± 0.088	0.0235 ± 0.012	0.002 ± 0.035	0.0825 ± 0.074	-0.0255 ± 0.005	-0.0275 ± 0.0021	0.003 ± 0.042	-0.0015 ± 0.054	0.009 ± 0.0071	0.0395 ± 0.042	0.009 ± 0.013	0.0155 ± 0.021	0.0075 ± 0.0035	-0.02 ± 0.0085	-0.0125 ± 0.00071	0.0085 ± 0.046

— the supplement of paper PMC10331698
